# Measured values from publication PMC5399447, “Neuroprotective pentapeptide CN-105 is associated with reduced sterile inflammation and improved functional outcomes in a traumatic brain injury murine model” (Scientific Reports, 2017).
# System: 84 genes related to inflammatory and autoimmune processes
# Test: Mouse Inflammatory Response and Autoimmunity PCR Array, whole brain
# Format: in vivo
# Procedure: Frozen, pulverized whole brain tissue was processed for RNA extraction from a separate cohort of treated and untreated injured animals on days 1 post-injury(CN-105, n = 4; vehicle, n = 3; Control(sham-operated), n = 3). Total RNA was extracted from frozen, pulverized whole brain tissue using RNeasy Lipid Tissue Mini Kit(Qiagen, Valencia, CA). RNA quantity and quality was assessed with the NanoDrop ND-1000 spectrophotometer(NanoDrop Technologies, Inc., Wilmington, DE) and by agarose gel electrophoresis. Only samples with a 260/280 ratio between 1.9–2.1, and a 260/230 ratio greater than 2.0, were further processed. First strand complementary DNA(cDNA) was generated from 2 μg total RNA using the RT[2] First strand kit(SABiosciences, Frederick, MD.)
# Gene expression was measured using the Mouse Inflammatory Response and Autoimmunity PCR Array(SABiosciences, Frederick, MD), which profiles the expression of 84 genes related to inflammatory and autoimmune processes. RT-PCR was performed according to manufacturer’s instructions Quality of the cDNA and PCR efficiency was verified by housekeeping genes and RT-PCR controls included in the PCR Array.
# Raw RT-PCR data were analyzed using the Web-Based PCR Array Data Analysis software(SABiosciences). ΔCt values and ΔΔCt - based fold-change were calculated from raw threshold cycle data, using beta-actin and glyceraldehyde 3-phosphate dehydrogenase(GAPDH) as internal standards for normalization. Fold changes were then normalized against sham-operated controls.
# [1] = TBI CN-105 vs TBI vehicle, brain 24 h post TBI
# [2] = TBI CN-105 vs sham vehicle, brain 24 h
substance,measurement,setting,value
Ac-VSRRR-amide [CN-105],Ccl24 Fold Change,[1],−14.8
same,Ccl25 Fold Change,[1],−1.2
same,Ccr1 Fold Change,[1],2.3
same,Ccr2 Fold Change,[1],−48.3
same,Ccr3 Fold Change,[1],5.4
same,Ccr4 Fold Change,[1],1.2
same,Ccr7 Fold Change,[1],1.2
same,Cd40 Fold Change,[1],−7.8
same,Cd40lg Fold Change,[1],−1.2
same,Cebpb Fold Change,[1],−1.5
same,Crp Fold Change,[1],1.2
same,Csf1 Fold Change,[1],−2.0
same,Cxcl1 Fold Change,[1],−8.3
same,Cxcl2 Fold Change,[1],4.8
same,Cxcl3 Fold Change,[1],2.4
same,Cxcl5 Fold Change,[1],6257
same,Cxcl9 Fold Change,[1],−70.3
same,Cxcl10 Fold Change,[1],−47.9
same,Cxcl11 Fold Change,[1],2.6
same,Cxcr4 Fold Change,[1],−7.3
same,Fasl Fold Change,[1],−2.0
same,Flt3l Fold Change,[1],−1.4
same,Fos Fold Change,[1],−1.2
same,Hdac4 Fold Change,[1],−1.1
same,Ifng Fold Change,[1],−12.9
same,Il1a Fold Change,[1],−10.1
same,Il1b Fold Change,[1],−1.6
same,Il1f10 Fold Change,[1],3.8
same,Il1r1 Fold Change,[1],3.5
same,Il1rap Fold Change,[1],−2.2
same,Il1rn Fold Change,[1],−1.6
same,Il6 Fold Change,[1],−29.8
same,Il6ra Fold Change,[1],−2.9
same,Il7 Fold Change,[1],515
same,Il8ra Fold Change,[1],1.2
same,Il8rb Fold Change,[1],1.1
same,Il9 Fold Change,[1],1.2
same,Il10 Fold Change,[1],−9.3
same,Il10rb Fold Change,[1],2.6
same,Il18 Fold Change,[1],7.2
same,Il18rap Fold Change,[1],−3.6
same,Il22 Fold Change,[1],−1.7
same,Il22ra2 Fold Change,[1],10895
same,Il23a Fold Change,[1],18.5
same,Il23r Fold Change,[1],5.8
same,Itgb2 Fold Change,[1],−1.5
same,Kng1 Fold Change,[1],−1.1
same,Lta Fold Change,[1],−1.2
same,Ltb Fold Change,[1],3.6
same,Ly96 Fold Change,[1],61.2
same,Myd88 Fold Change,[1],−273
same,Nfatc3 Fold Change,[1],10044
same,Nfkb1 Fold Change,[1],−16.6
same,Nr3c1 Fold Change,[1],13.7
same,Ripk2 Fold Change,[1],−1.1
same,Tirap Fold Change,[1],−1.5
same,Tlr1 Fold Change,[1],−1.4
same,Tlr2 Fold Change,[1],1.0
same,Tlr3 Fold Change,[1],1.3
same,Tlr4 Fold Change,[1],−9.0
same,Tlr5 Fold Change,[1],2.5
same,Tlr6 Fold Change,[1],−170
same,Tlr7 Fold Change,[1],19.0
same,Tnf Fold Change,[1],6.9
same,Tnfsf14 Fold Change,[1],−2.8
same,Tollip Fold Change,[1],−2.9
same,Bcl6 fold change TBI-CN-105/S-v,[2],11.2
same,C3ar1 fold change TBI-CN-105/S-v,[2],34.9
same,C3 fold change TBI-CN-105/S-v,[2],4.6
same,C4b fold change TBI-CN-105/S-v,[2],163.3
same,Ccl2 fold change TBI-CN-105/S-v,[2],42.3
same,Ccl3 fold change TBI-CN-105/S-v,[2],17.7
same,Ccl4 fold change TBI-CN-105/S-v,[2],32.3
same,Ccl5 fold change TBI-CN-105/S-v,[2],3.8
same,Ccl7 fold change TBI-CN-105/S-v,[2],2.9
same,Ccl8 fold change TBI-CN-105/S-v,[2],5.6
same,Ccl11 fold change TBI-CN-105/S-v,[2],2253.1
same,Ccl12 fold change TBI-CN-105/S-v,[2],3.7
same,Ccl17 fold change TBI-CN-105/S-v,[2],−2.6
same,Ccl19 fold change TBI-CN-105/S-v,[2],−5.8
same,Ccl20 fold change TBI-CN-105/S-v,[2],3086.8
same,Ccl22 fold change TBI-CN-105/S-v,[2],176.2
same,Ccl24 fold change TBI-CN-105/S-v,[2],159.1
same,Ccl25 fold change TBI-CN-105/S-v,[2],16.9
same,Ccr1 fold change TBI-CN-105/S-v,[2],−2.5
same,Ccr2 fold change TBI-CN-105/S-v,[2],5.6
same,Ccr3 fold change TBI-CN-105/S-v,[2],66.6
same,Ccr4 fold change TBI-CN-105/S-v,[2],7945.9
same,Ccr7 fold change TBI-CN-105/S-v,[2],283.2
same,Cd40 fold change TBI-CN-105/S-v,[2],38.8
same,Cebpb fold change TBI-CN-105/S-v,[2],3.5
same,Csf1 fold change TBI-CN-105/S-v,[2],1.1
same,Cxcl1 fold change TBI-CN-105/S-v,[2],29.4
same,Cxcl2 fold change TBI-CN-105/S-v,[2],25.5
same,Cxcl3 fold change TBI-CN-105/S-v,[2],54032.0
same,Cxcl5 fold change TBI-CN-105/S-v,[2],957.4
same,Cxcl9 fold change TBI-CN-105/S-v,[2],32.2
same,Cxcl10 fold change TBI-CN-105/S-v,[2],−1.7
same,Cxcl11 fold change TBI-CN-105/S-v,[2],372.3
same,Cxcr4 fold change TBI-CN-105/S-v,[2],21.0
same,Fasl fold change TBI-CN-105/S-v,[2],3.2
same,Flt3l fold change TBI-CN-105/S-v,[2],−2.8
